From patent publication US20240190890A1, “MK2 INHIBITORS AND USES THEREOF” (Bristol-Myers Squibb Company, priority 2022, published 2024) come the findings set out here.

Broadly, the IC50 is the concentration needed to halve the response being measured.

p38a activated, mitogen-activated protein kinase-activated protein kinase 2 (MAPKAP-K2 or MK2) enzyme, sequence (P49137 whole entry): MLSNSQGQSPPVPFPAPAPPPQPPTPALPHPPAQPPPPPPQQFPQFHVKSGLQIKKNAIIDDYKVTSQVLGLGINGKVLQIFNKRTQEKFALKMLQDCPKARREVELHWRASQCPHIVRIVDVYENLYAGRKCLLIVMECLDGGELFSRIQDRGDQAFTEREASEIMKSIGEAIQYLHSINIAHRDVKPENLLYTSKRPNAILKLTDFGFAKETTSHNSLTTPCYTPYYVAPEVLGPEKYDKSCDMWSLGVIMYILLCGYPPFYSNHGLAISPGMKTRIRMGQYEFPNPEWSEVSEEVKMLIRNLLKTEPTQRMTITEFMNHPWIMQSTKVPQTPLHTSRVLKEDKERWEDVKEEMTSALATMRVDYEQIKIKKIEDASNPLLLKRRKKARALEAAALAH

The target in the test is p38a activated, mitogen-activated protein kinase-activated protein kinase 2 (MAPKAP-K2 or MK2) enzyme (Homo sapiens (Human), UniProt P49137). Put plainly: MK2 Omnia continuous-read kinase assay for compound potency. As to conditions: [MK-2]=0.4 nM, [ATP]=10 μM, [ST3-Sox]=10 μM; room temperature. The format is biochemical. The source says:
Mitogen-Activated Protein Kinase-Activated Protein Kinase 2 Omnia® Assay for Compound Potency Assessment:
The protocol below describes a continuous-read kinase assay optimized to measure potency of compounds against p38a activated, mitogen-activated protein kinase-activated protein kinase 2 (MAPKAP-K2 or MK2) enzyme. Further details of this assay are described by Life Technologies, Carlsbad, CA on their website at the following URL: http://tools.lifetechnologies.com/content/sfs/manuals/omnia_kinase_assay_man.pdf. • [Reagent] used: • [MK-2]=0.4 nM, • [ATP]=10 μM and • [ST3-Sox]=10 μM (ATP^appKM=10 μM)
Briefly, 10× stock solutions of MK2 (PV3317, from Life Technologies), 1.13X ATP (AS001A), and Sox conjugated peptide substrate, S/T3-Sox, (KZN1031) were prepared in 1× kinase reaction buffer consisting of 20 mM Tris, pH 7.5, 5 mM MgCl2, 1 mM EGTA, 5 mM β-glycerophosphate, 5% glycerol (10× stock, KB001A) and 0.2 mM DTT (DS001A). Enzyme solution (5 μL) was added to each of DMSO ([…]) or serially diluted test compounds prepared in DMSO in a Corning (#3574) 384-well, white, non-binding surface microtiter plate (Corning, NY). Kinase reactions were started with the addition of 45 μL of the ATP-peptide substrate S/T3-Sox mix and monitored every 71 seconds for 120 minutes at λex360/λem485 in a Synergy H4 plate reader from BioTek (Winooski, VT) at room temperature.
Background signals from the no enzyme control wells were subtracted from all progress curves. The initial linear portions of the net progress curves were fit according to a linear equation to yield the slope and percentage of inhibition (% inhibition) at each compound concentration. The net progress curves obtained during the first two hours of reactions were also fit according to an ascending single-exponential equation (Eq. 1) to yield kobs values at each compound concentration. Plots of % Inhibition versus inhibitor concentrations were fit according to a dose-response equation (Eq. 2) to generate IC50 and Hill slope values while plots of kobs versus inhibitor concentration were fit according to Equation 3 (Eq. 3) to generate apparent kinact/K1 values using the GraphPad PRISM software (Version 6.00; GraphPad San Diego, CA).
where F is the fluorescence intensity from the plate reader, V0 is a constant reflecting the relationship between the instrument readout and product concentration, t is time, e is Euler's number, and kobs is the observed inactivation rate constant.
where % Inhibition is percentage of inhibition, IC50 is half maximal inhibitory concentration, [I] is the inhibitor concentration, and n is the Hill slope.
where kobs is the observed inactivation rate constant, kinact is the apparent inactivation rate constant, K1 is the apparent inhibition constant, and [I] is the inhibitor concentration. […] Potency results for the compounds tested are shown in Table 4 in the column entitled “MK2 IC50.”
Consider `C=Cc1cc(-c2ccc3c(ccc4sc5c(c43)NCC(C)NC5=O)n2)cc(N2CCC3(CCC(=O)O3)CC2)n1` (racemic) [Example I-215, rac-(R)-8-(4-(10-methyl-8-oxo-9,10,11,12-tetrahydro-8H-[1,4]diazepino[5′,6′:4,5]thieno[3,2-f]quinolin-3-yl)-6-vinylpyridin-2-yl)-1-oxa-8-azaspiro[4.5]decan-2-one], for which the IC50 came to 21 nM.
To `C=Cc1cc(-c2ccc3c(ccc4sc5c(c43)NCC(C)NC5=O)n2)cc(N2CC3CC2CO3)n1` (racemic) [Example I-216, rac-(10R)-3-(2-(2-oxa-5-azabicyclo[2.2.1]heptan-5-yl)-6-vinylpyridin-4-yl)-10-methyl-9,10,11,12-tetrahydro-8H-[1,4]diazepino[5′,6′:4,5]thieno[3,2-f]quinolin-8-one] belongs 11 nM; to `C#Cc1ncc(F)c(-c2ccc3c(ccc4sc5c(c43)NC[C@@H](C)NC5=O)n2)n1` [Example I-1, (R)-3-(2-ethynyl-5-fluoropyrimidin-4-yl)-10-methyl-9,10,11,12-tetrahydro-8H-[1,4]diazepino[5′,6′:4,5]thieno[3,2-f]quinolin-8-one], 5 nM; to `C=Cc1ncc(F)c(-c2ccc3c(ccc4sc5c(c43)NC[C@@H](C)NC5=O)n2)n1` [Example I-2, (R)-3-(5-fluoro-2-vinylpyrimidin-4-yl)-10-methyl-9,10,11,12-tetrahydro-8H-[1,4]diazepino[5′,6′:4,5]thieno[3,2-f]quinolin-8-one], 133 nM.
To `C[C@@H]1CNc2c(sc3ccc4nc(-c5nc(Cl)ncc5C(F)(F)F)ccc4c23)C(=O)N1` [Example I-4, (R)-3-(2-chloro-5-(trifluoromethyl)pyrimidin-4-yl)-10-methyl-9,10,11,12-tetrahydro-8H-[1,4]diazepino[5′,6′:4,5]thieno[3,2-f]quinolin-8-one] belongs 1 nM; to `C=Cc1ncc(COCC)c(-c2ccc3c(ccc4sc5c(c43)NC[C@@H](C)NC5=O)n2)n1` [Example I-5, (R)-3-(5-(ethoxymethyl)-2-vinylpyrimidin-4-yl)-10-methyl-9,10,11,12-tetrahydro-8H-[1,4]diazepino[5′,6′:4,5]thieno[3,2-f]quinolin-8-one], 7 nM.
Regarding `Cc1cnc(Cl)nc1-c1ccc2c(ccc3sc4c(c32)NC[C@@H](C)NC4=O)n1` [Example I-6, (R)-3-(2-chloro-5-methylpyrimidin-4-yl)-10-methyl-9,10,11,12-tetrahydro-8H-[1,4]diazepino[5′,6′:4,5]thieno[3,2-f]quinolin-8-one], the IC50 stood at 912 nM.
Then `COCc1nc(Cl)cc(-c2ccc3c(ccc4sc5c(c43)NC[C@@H](C)NC5=O)n2)n1` [Example I-7, (R)-3-(6-chloro-2-(methoxymethyl)pyrimidin-4-yl)-10-methyl-9,10,11,12-tetrahydro-8H-[1,4]diazepino[5′,6′:4,5]thieno[3,2-f]quinolin-8-one], with 6 nM; and `C[C@@H]1CNc2c(sc3ccc4nc(-c5ccnc(Cl)n5)ccc4c23)C(=O)N1` [Example I-8, (R)-3-(2-chloropyrimidin-4-yl)-10-methyl-9,10,11,12-tetrahydro-8H-[1,4]diazepino[5′,6′:4,5]thieno[3,2-f]quinolin-8-one], with 75 nM.
Regarding `C[C@@H]1CNc2c(sc3ccc4nc(-c5nc(Cl)ncc5C#N)ccc4c23)C(=O)N1` [Example I-9, (R)-2-chloro-4-(10-methyl-8-oxo-9,10,11,12-tetrahydro-8H-[1,4]diazepino[5′,6′:4,5]thieno[3,2-f]quinolin-3-yl)pyrimidine-5-carbonitrile], the IC50 was found to be 97 nM.
Then `COc1cnc(Cl)nc1-c1ccc2c(ccc3sc4c(c32)NC[C@@H](C)NC4=O)n1` [Example I-10, (R)-3-(2-chloro-5-methoxypyrimidin-4-yl)-10-methyl-9,10,11,12-tetrahydro-8H-[1,4]diazepino[5′,6′:4,5]thieno[3,2-f]quinolin-8-one], with 291 nM; and `C[C@@H]1CNc2c(sc3ccc4nc(-c5cc(Cl)ncn5)ccc4c23)C(=O)N1` [Example I-11, (R)-3-(6-chloropyrimidin-4-yl)-10-methyl-9,10,11,12-tetrahydro-8H-[1,4]diazepino[5′,6′:4,5]thieno[3,2-f]quinolin-8-one], with 2 nM.
To `C#Cc1ncc(COCC)c(-c2ccc3c(ccc4sc5c(c43)NC[C@@H](C)NC5=O)n2)n1` [Example I-12, (R)-3-(5-(ethoxymethyl)-2-ethynylpyrimidin-4-yl)-10-methyl-9,10,11,12-tetrahydro-8H-[1,4]diazepino[5′,6′:4,5]thieno[3,2-f]quinolin-8-one] belongs 87 nM; to `C=Cc1cc(-c2ccc3c(ccc4sc5c(c43)NC[C@@H](C)NC5=O)n2)nc(COC)n1` [Example I-13, (R)-3-(2-(methoxymethyl)-6-vinylpyrimidin-4-yl)-10-methyl-9,10,11,12-tetrahydro-8H-[1,4]diazepino[5′,6′:4,5]thieno[3,2-f]quinolin-8-one], 1 nM.
Then `C[C@@H]1CNc2c(sc3ccc4nc(-c5cc(Cl)nc(COC6CCNCC6)n5)ccc4c23)C(=O)N1` [Example I-14, (R)-3-(6-chloro-2-((piperidin-4-yloxy)methyl)pyrimidin-4-yl)-10-methyl-9,10,11,12-tetrahydro-8H-[1,4]diazepino[5′,6′:4,5]thieno[3,2-f]quinolin-8-one], with 12 nM; and `C[C@@H]1CNc2c(sc3ccc4nc(-c5cc(Cl)nc(COC6CCN(C)CC6)n5)ccc4c23)C(=O)N1` [Example I-15, (R)-3-(6-chloro-2-(((1-methylpiperidin-4-yl)oxy)methyl)pyrimidin-4-yl)-10-methyl-9,10,11,12-tetrahydro-8H-[1,4]diazepino[5′,6′:4,5]thieno[3,2-f]quinolin-8-one], with 10 nM.
Regarding `C[C@@H]1CNc2c(sc3ccc4nc(-c5cc(N6CCN(C)CC6)nc(Cl)n5)ccc4c23)C(=O)N1` [Example I-16, (R)-3-(2-chloro-6-(4-methylpiperazin-1-yl)pyrimidin-4-yl)-10-methyl-9,10,11,12-tetrahydro-8H-[1,4]diazepino[5′,6′:4,5]thieno[3,2-f]quinolin-8-one], the IC50 is 26 nM.
Then `C[C@@H]1CNc2c(sc3ccc4nc(-c5cc(Cl)nc(N6CCN(C)CC6)n5)ccc4c23)C(=O)N1` [Example I-17, (R)-3-(6-chloro-2-(4-methylpiperazin-1-yl)pyrimidin-4-yl)-10-methyl-9,10,11,12-tetrahydro-8H-[1,4]diazepino[5′,6′:4,5]thieno[3,2-f]quinolin-8-one], with 137 nM; and `C=Cc1cc(-c2ccc3c(ccc4sc5c(c43)NC[C@@H](C)NC5=O)n2)nc(N2CCN(C)CC2)n1` [Example I-19, (R)-10-methyl-3-(2-(4-methylpiperazin-1-yl)-6-vinylpyrimidin-4-yl)-9,10,11,12-tetrahydro-8H-[1,4]diazepino[5′,6′:4,5]thieno[3,2-f]quinolin-8-one], with 4 nM; and `C[C@@H]1CNc2c(sc3ccc4nc(-c5nc(Cl)ncc5COC5COC5)ccc4c23)C(=O)N1` [Example I-20, (R)-3-(2-chloro-5-((oxetan-3-yloxy)methyl)pyrimidin-4-yl)-10-methyl-9,10,11,12-tetrahydro-8H-[1,4]diazepino[5′,6′:4,5]thieno[3,2-f]quinolin-8-one], with 224 nM.
Take `C=Cc1ncc(COC2COC2)c(-c2ccc3c(ccc4sc5c(c43)NC[C@@H](C)NC5=O)n2)n1` [Example I-21, (R)-10-methyl-3-(5-((oxetan-3-yloxy)methyl)-2-vinylpyrimidin-4-yl)-9,10,11,12-tetrahydro-8H-[1,4]diazepino[5′,6′:4,5]thieno[3,2-f]quinolin-8-one]: the IC50 is 24 nM.
Turning to `C=Cc1cc(-c2ccc3c(ccc4sc5c(c43)NC[C@@H](C)NC5=O)n2)nc(COCC)n1` [Example I-22, (R)-3-(2-(ethoxymethyl)-6-vinylpyrimidin-4-yl)-10-methyl-9,10,11,12-tetrahydro-8H-[1,4]diazepino[5′,6′:4,5]thieno[3,2-f]quinolin-8-one], the IC50 turned out to be 2 nM.
